Among the data in patent US9340510B2, “Tetrahydroisoquinoline derivatives, pharmaceutical compositions and uses thereof” (Boehringer Ingelheim International GmbH, priority 2014, dated 2016) are IC50 values, retold here.

By IC50 is commonly meant the concentration needed to halve the response being measured. Low values mean inhibition by little substance, high ones a need for much substance.

Chain of human ACC2 (O00763 129-2458): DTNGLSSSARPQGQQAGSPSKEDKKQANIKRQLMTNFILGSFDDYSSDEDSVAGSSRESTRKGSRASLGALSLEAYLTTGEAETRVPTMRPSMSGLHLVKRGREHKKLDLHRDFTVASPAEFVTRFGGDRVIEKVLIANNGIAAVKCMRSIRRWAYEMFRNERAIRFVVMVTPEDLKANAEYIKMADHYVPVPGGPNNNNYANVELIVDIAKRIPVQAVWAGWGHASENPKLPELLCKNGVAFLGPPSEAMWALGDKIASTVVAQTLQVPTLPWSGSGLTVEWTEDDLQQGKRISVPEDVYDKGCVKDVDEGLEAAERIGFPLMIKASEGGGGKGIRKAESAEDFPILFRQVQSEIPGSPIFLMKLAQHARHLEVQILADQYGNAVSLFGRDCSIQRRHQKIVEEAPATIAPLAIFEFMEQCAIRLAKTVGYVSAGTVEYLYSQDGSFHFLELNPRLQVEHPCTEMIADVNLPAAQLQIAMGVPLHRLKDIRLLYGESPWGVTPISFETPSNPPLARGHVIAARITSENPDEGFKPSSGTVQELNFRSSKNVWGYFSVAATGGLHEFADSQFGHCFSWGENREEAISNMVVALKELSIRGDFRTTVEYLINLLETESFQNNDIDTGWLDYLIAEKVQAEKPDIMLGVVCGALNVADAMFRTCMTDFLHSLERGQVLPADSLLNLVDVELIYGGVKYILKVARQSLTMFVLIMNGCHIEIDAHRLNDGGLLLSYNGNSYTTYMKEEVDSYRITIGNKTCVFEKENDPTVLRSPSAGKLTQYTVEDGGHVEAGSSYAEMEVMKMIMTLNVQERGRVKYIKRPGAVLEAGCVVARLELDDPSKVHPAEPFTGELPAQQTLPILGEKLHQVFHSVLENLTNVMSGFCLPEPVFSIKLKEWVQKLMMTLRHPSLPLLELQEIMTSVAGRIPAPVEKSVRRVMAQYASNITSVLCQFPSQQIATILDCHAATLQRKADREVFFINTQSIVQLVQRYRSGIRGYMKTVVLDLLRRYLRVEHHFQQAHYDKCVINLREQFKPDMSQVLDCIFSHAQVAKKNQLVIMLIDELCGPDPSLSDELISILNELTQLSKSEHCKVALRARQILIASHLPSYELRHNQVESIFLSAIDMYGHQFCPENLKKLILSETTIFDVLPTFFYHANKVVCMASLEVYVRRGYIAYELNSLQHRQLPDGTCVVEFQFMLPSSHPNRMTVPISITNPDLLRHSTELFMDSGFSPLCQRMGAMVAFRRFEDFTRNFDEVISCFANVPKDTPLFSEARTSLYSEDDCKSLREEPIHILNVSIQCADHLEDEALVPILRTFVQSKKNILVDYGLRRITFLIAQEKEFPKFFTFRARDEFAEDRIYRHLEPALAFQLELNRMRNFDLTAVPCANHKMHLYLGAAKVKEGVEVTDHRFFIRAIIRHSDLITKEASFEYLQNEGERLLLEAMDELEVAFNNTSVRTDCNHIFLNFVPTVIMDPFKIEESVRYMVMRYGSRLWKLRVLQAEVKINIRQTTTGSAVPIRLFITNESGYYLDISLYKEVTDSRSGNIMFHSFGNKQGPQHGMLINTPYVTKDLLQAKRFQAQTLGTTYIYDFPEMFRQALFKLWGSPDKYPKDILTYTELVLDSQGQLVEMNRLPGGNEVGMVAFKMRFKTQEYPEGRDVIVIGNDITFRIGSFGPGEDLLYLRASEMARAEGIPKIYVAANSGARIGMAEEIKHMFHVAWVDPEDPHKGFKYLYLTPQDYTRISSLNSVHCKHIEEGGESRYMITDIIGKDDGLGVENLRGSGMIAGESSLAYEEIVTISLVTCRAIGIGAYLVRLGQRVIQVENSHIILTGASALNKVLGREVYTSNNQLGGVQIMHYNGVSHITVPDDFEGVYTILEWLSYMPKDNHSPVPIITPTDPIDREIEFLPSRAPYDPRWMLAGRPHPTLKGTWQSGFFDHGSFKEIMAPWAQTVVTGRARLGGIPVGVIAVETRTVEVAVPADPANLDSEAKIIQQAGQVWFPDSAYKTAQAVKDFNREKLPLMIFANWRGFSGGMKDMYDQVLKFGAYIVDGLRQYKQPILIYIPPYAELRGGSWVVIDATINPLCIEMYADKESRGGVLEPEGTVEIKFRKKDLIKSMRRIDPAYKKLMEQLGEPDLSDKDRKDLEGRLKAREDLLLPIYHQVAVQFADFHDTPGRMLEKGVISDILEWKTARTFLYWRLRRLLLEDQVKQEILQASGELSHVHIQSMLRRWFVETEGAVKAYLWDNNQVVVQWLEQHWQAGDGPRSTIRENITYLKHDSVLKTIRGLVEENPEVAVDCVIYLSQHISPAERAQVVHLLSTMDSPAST

In this assay the target is human ACC2 (Homo sapiens (Human), UniProt O00763). As to the kind of experiment: ACC2 assay: spectrophotometric 384 well assay (coupled lactate dehydrogenase/pyruvate kinase). It counts as biochemical. Conditions: hACC2 construct lacking the 128 N-terminal amino acids, 25° C., 340 nm. The method in brief:
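N-terminally truncated human ACC2 from insect cells; ADP formation coupled via pyruvate kinase/lactate dehydrogenase, NADH loss read at 340 nm over 15 min at 25 °C, pH 7.5. Started with NADH, acetyl-CoA and 500 µM ATP; 1% DMSO. IC50 by nonlinear fit of background-subtracted slopes.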
Compound `C[C@H](NC(=O)[C@H]1C[C@H](F)C1)c1ccc(CN2Cc3ccc(OCC4CC4)cc3C(F)C2)cc1` (stereo partly shown) [Example 3.023] returned an IC50 of 45 nM.

`CC(=O)Nc1nc(C)c(C(=O)N[C@@H](C)c2ccc(CN3CCc4c(cccc4OC4CCC4)C3)cc2)s1` [Example 2.012] displayed an IC50 of 97 nM.

As for `COC(=O)N[C@@H](C)c1ccc(CN2Cc3ccc(OCC4CC4)cc3C(F)C2)cc1` (stereo partly shown) [Example 5.009], 116 nM corresponded to half-maximal inhibition (IC50).

As to `CC(=O)NC(C)c1ccc(CN2CCc3c(ccc(OCCC4CC4)c3Cl)C2)cc1` (stereo not shown) [Example 1.035], the 50% inhibitory concentration (IC50) amounted to 61 nM.

Turning to `C[C@H](NC(=O)C1CC(F)(F)C1)c1ccc(CN2CCc3cc(OCC4CC4(F)F)ccc3C2)cc1` (stereo partly shown) [Example 3.021], half-maximal inhibition (IC50) required 198 nM.

Regarding `CC(=O)NC(C)c1ccc(CN2CCc3cc(OCCC(F)(F)F)ccc3C2)cc1` (stereo not shown) [Example 1.014], inhibition was half-maximal at 95 nM (IC50).

`C[C@H](NC(=O)C1CCC1)c1ccc(CN2CCc3cc(OCC4CC4(F)F)ccc3C2)cc1` (stereo partly shown) [Example 3.006] showed an IC50 of 38 nM.

Consider `COc1cccc2c1CCN(Cc1ccc([C@H](C)NC(=O)c3sc(NC(C)=O)nc3C)cc1)C2` [Example 2.003], for which it took 157 nM to reach half-maximal inhibition (IC50).

`CC(=O)N[C@@H](C)c1ccc(CN2Cc3ccc(OC4CCC4)cc3C(O)C2)cc1` (stereo partly shown) [Example 1.099] gave an IC50 of 421 nM.

`COc1ccc2c(c1F)CCN(Cc1ccc([C@H](C)NC(C)=O)cc1)C2C` (stereo partly shown) [Example 1.095]: inhibition was half-maximal at 494 nM (IC50).

Turning to `C[C@H](NC(=O)C1CC1)c1ccc(CN2CCc3cc(OC[C@H]4CC4(F)F)ccc3C2)cc1` [Example 1.052], the IC50 worked out at 24 nM.

`COc1c(OCC2CC(F)(F)C2)ccc2c1CCN(Cc1ccc([C@H](C)NC(=O)C3CC3)cc1)C2` [Example 1.056]: the IC50 was found to be 51 nM.

`CC(=O)N[C@@H](C)c1ccc(CN2CCc3c(Br)cccc3C2)cc1` [Example 7.004] came in with a half-maximal inhibitory concentration (IC50) of 148 nM.

For `COc1c(OCC2CC(F)(F)C2)ccc2c1CCN(Cc1ccc([C@H](C)NC(C)=O)cc1)C2` [Example 1.075], the concentration for half-maximal inhibition (IC50) amounted to 55 nM.

As for `CC(=O)N[C@@H](C)c1ccc(CN2CCc3c(ccc(OC(C)C)c3Br)C2)cc1` [Example 1.079], inhibition was half-maximal at 136 nM (IC50).

`C[C@H](NC(=O)C1(O)CC1)c1ccc(CN2CCc3cc(OCC4CC4)ccc3C2)cc1` [Example 2.024] came in with an IC50 of 150 nM.

In turn, `COc1c(OCCC2CC2)ccc2c1CCN(Cc1ccc([C@H](C)NC(C)=O)cc1)C2` [Example 1.077] returned an IC50 of 40 nM.

Turning to `COc1c(OCC2CC2)ccc2c1CCN(Cc1ccc([C@H](C)NC(C)=O)cc1)C2` [Example 1.076], half-maximal inhibition (IC50) was put at 68 nM.

Take `COc1c(OCC(C)C)ccc2c1CCN(Cc1ccc([C@H](C)NC(=O)C3CC3)cc1)C2` [Example 1.057]: the IC50 was 102 nM.

`C[C@H](NC(=O)c1cnn(C)c1)c1ccc(CN2CCc3cc(OCC4CC4(F)F)ccc3C2)cc1` (stereo partly shown) [Example 3.004] yielded an IC50 of 46 nM.

`CC(=O)Nc1nc(C)c(C(=O)N[C@@H](C)c2ccc(CN3Cc4ccc(OCC5CC5)cc4C(F)C3)cc2)o1` (stereo partly shown) [Example 3.036]: the IC50 was 518 nM.

As for `CC(=O)N[C@@H](C)c1ccc(CN2Cc3ccc(OC(C)C)cc3C(O)C2)cc1` (stereo partly shown) [Example 1.098], the IC50 was 392 nM.

Take `C[C@H](NC(=O)C1CC1)c1ccc(CN2CCc3cc(OCC(F)F)ccc3C2)cc1` [Example 1.046]: half-maximal inhibition (IC50) was put at 163 nM.

Compound `CC(=O)Nc1nc(C)c(C(=O)N[C@@H](C)c2ccc(CN3Cc4ccc(OCC5CC5)cc4C(F)C3)cc2)s1` (stereo partly shown) [Example 3.046] had an IC50 of 56 nM.

Turning to `CC(=O)N[C@@H](C)c1ccc(CN2Cc3ccc(OCC4CC4)cc3C(O)C2)cc1` (stereo partly shown) [Example 1.096], the IC50 is 315 nM.

In the case of `COc1c(OCC(C)C)ccc2c1CCN(Cc1ccc([C@H](C)NC(C)=O)cc1)C2` [Example 1.068], it took 70 nM to reach half-maximal inhibition (IC50).

`C[C@H](NC(=O)c1cncs1)c1ccc(CN2CCc3c(cccc3C(F)(F)F)C2)cc1` [Example 2.006]: inhibition was half-maximal at 85 nM (IC50).

In turn, `C[C@H](NC(=O)C1(C#N)CC1)c1ccc(CN2Cc3ccc(OCC4CC4)cc3C(O)C2)cc1` (stereo partly shown) [Example 3.043] registered an IC50 of 354 nM.

As to `C[C@H](NC(=O)C1CC1)c1ccc(CN2CCc3cc(OC[C@@H]4CC4(F)F)ccc3C2)cc1` [Example 1.051], half-maximal inhibition (IC50) was put at 31 nM.

The compound `C[C@H](NC(=O)c1cnco1)c1ccc(CN2CCc3cc(OCC4CC4(F)F)ccc3C2)cc1` (stereo partly shown) [Example 3.009] came in with an IC50 of 59 nM.

As to `CC(=O)N[C@@H](C)c1ccc(CN2CCc3cc(Cl)ccc3C2)cc1` [Example 1.081], 232 nM corresponded to half-maximal inhibition (IC50).

Regarding `CCOc1cccc2c1CCN(Cc1ccc(C(C)NC(C)=O)cc1)C2` (stereo not shown) [Example 1.018], 407 nM corresponded to half-maximal inhibition (IC50).

On to `C[C@H](NC(=O)c1ccno1)c1ccc(CN2CCc3cc(OCC4CC4(F)F)ccc3C2)cc1` (stereo partly shown) [Example 3.014], for which the midpoint of inhibition, the IC50, lay at 103 nM.

For the compound `C[C@H](NC(=O)N(C)C)c1ccc(CN2Cc3ccc(OCC4CC4(F)F)cc3C(F)C2)cc1` (stereo partly shown) [Example 5.004], the IC50 was determined as 17 nM.

On to `CC(=O)NC(C)c1ccc(CN2CCc3c(ccc(OCC4CC4)c3Cl)C2)cc1` (stereo not shown) [Example 1.026], for which 43 nM corresponded to half-maximal inhibition (IC50).

`C[C@H](NC(=O)Cc1cncnc1)c1ccc(CN2CCc3cc(OC[C@@H]4CC4(F)F)ccc3C2)cc1` [Example 2.026] registered a 50% inhibitory concentration (IC50) of 81 nM.

As for `C[C@H](NC(=O)CN)c1ccc(CN2Cc3ccc(OCC4CC4)cc3C(F)C2)cc1` (stereo partly shown) [Example 3.058], half-maximal inhibition (IC50) required 266 nM.

In turn, `C[C@H](NC(=O)C1(C#N)CC1)c1ccc(CN2Cc3ccc(OCC4CC4(F)F)cc3C(F)C2)cc1` (stereo partly shown) [Example 3.028] displayed an IC50 of 46 nM.

As for `CC(=O)N[C@@H](C)c1ccc(CN2Cc3ccc(OCC4CCC4)cc3C(O)C2)cc1` (stereo partly shown) [Example 1.101], half-maximal inhibition (IC50) was put at 55 nM.

For the compound `CC(=O)NC(C)c1ccc(CN2CCc3c(ccc(OCC4CC4)c3Br)C2)cc1` (stereo not shown) [Example 1.022], half-maximal inhibition (IC50) required 126 nM.

Compound `C[C@H](NC(=O)C1CC1)c1ccc(CN2CC(=O)c3cc(OCC4CC4(F)F)ccc3C2)cc1` (stereo partly shown) [Example 7.006] gave a half-inhibitory concentration (IC50) of 551 nM.

In turn, `CC(=O)NC(C)c1ccc(CN2CCc3cc(OCC(F)F)ccc3C2)cc1` (stereo not shown) [Example 1.010] came in with an IC50 of 614 nM.

`C[C@H](NC(=O)c1ncc[nH]1)c1ccc(CN2Cc3ccc(OCC4CC4)cc3C(F)C2)cc1` (stereo partly shown) [Example 3.033] yielded an IC50 of 358 nM.

As for `C[C@H](NC(=O)C1CCC(=O)O1)c1ccc(CN2Cc3ccc(OCC4CC4)cc3C(F)C2)cc1` (stereo partly shown) [Example 3.054], the IC50 was 245 nM.

Consider `C[C@H](NC(=O)C(C)(F)F)c1ccc(CN2CCc3cc(OCC4CC4(F)F)ccc3C2)cc1` (stereo partly shown) [Example 3.002], for which the IC50 came out at 29 nM.

The compound `CC(=O)N[C@@H](C)c1ccc(CN2CCc3cc(OCC4CC4(F)F)ccc3C2C)cc1` (stereo partly shown) [Example 1.082] came in with an IC50 of 39 nM.

The compound `COc1c(OCCC(F)(F)F)ccc2c1CCN(Cc1ccc([C@H](C)NC(=O)C3CC3)cc1)C2` [Example 1.054] came in with an IC50 of 269 nM.

In the case of `CCC(=O)Nc1nc(C)c(C(=O)N[C@@H](C)c2ccc(CN3CCc4cc(OCC5CC5(F)F)ccc4C3)cc2)s1` (stereo partly shown) [Example 3.017], the IC50 was 37 nM.

In turn, `CC(=O)Nc1nc(C)c(C(=O)N[C@@H](C)c2ccc(CN3CCc4c(cccc4C(F)(F)F)C3)cc2)s1` [Example 2.005] registered an IC50 of 105 nM.

Regarding `CCOc1ccc2c(c1OC)CCN(Cc1ccc([C@H](C)NC(C)=O)cc1)C2` [Example 1.067], half-maximal inhibition (IC50) required 233 nM.

`C[C@H](NC(=O)CO)c1ccc(CN2Cc3ccc(OCC4CC4(F)F)cc3C(F)C2)cc1` (stereo partly shown) [Example 2.034] had an IC50 of 55 nM.

Take `CC(=O)N[C@@H](C)c1ccc(CN2CCc3c(ccc(OCC4(C(F)(F)F)CC4)c3Cl)C2)cc1` [Example 1.062]: the IC50 amounted to 55 nM.

Compound `C[C@H](NC(=O)c1cn[nH]c1)c1ccc(CN2Cc3ccc(OCC4CC4)cc3C(O)C2)cc1` (stereo partly shown) [Example 3.063] yielded an IC50 of 266 nM.

On to `CC(=O)N[C@@H](C)c1ccc(CN2CC(=O)c3cc(OCc4ccccc4)ccc3C2)cc1` [Example 1.089], for which the half-maximal inhibitory concentration (IC50) was 89 nM.

Take `C[C@H](NC(=O)c1cn[nH]c1)c1ccc(CN2CCc3c(cccc3C(F)(F)F)C2)cc1` [Example 2.008]: the IC50 was 100 nM.

`C[C@H](NC(=O)N(C)C)c1ccc(CN2Cc3ccc(OCC4CC4)cc3C(O)C2)cc1` (stereo partly shown) [Example 5.005] registered an IC50 of 155 nM.

`COc1c(OCC2CC2)ccc2c1CCN(Cc1ccc([C@H](C)NC(C)=O)cc1)C2C` (stereo partly shown) [Example 1.086] registered an IC50 of 227 nM.

`C[C@H](NC(=O)C1CC1)c1ccc(CN2CCc3cc(OCCC4CC4)ccc3C2)cc1` [Example 2.018] came in with an IC50 of 47 nM.

`CC(=O)N[C@@H](C)c1ccc(CN2CC(=O)c3cc(OCC4CC4)ccc3C2)cc1` [Example 1.090] returned an IC50 of 65 nM.

Take `C[C@H](NC(=O)[C@H]1C[C@H](F)C1)c1ccc(CN2Cc3ccc(OCC4CC4(F)F)cc3C(F)C2)cc1` (stereo partly shown) [Example 3.031]: the IC50 amounted to 77 nM.

`C[C@H](NC(=O)c1cnn(C)c1N)c1ccc(CN2CCc3cc(OCC4CC4(F)F)ccc3C2)cc1` (stereo partly shown) [Example 3.018]: the midpoint of inhibition, the IC50, lay at 208 nM.

Consider `C[C@H](NC(=O)C1CC1)c1ccc(CN2CCc3cc(OCC4CC4)ccc3C2)cc1` [Example 1.042], for which the IC50 came to 65 nM.

On to `C[C@H](NC(=O)[C@@H](C)O)c1ccc(CN2Cc3ccc(OCC4CC4)cc3C(F)C2)cc1` (stereo partly shown) [Example 3.061], for which the midpoint of inhibition, the IC50, lay at 90 nM.

With `COc1c(OCC2CCC2)ccc2c1CCN(Cc1ccc([C@H](C)NC(=O)C3CC3)cc1)C2` [Example 1.055], the IC50 came to 41 nM.

For `CC(=O)N[C@@H](C)c1ccc(CN2Cc3ccc(OCC4CC4)cc3C(F)C2)cc1` (stereo partly shown) [Example 1.093], the IC50 was found to be 20 nM.

Regarding `COc1ccc2c(c1F)CCN(Cc1ccc([C@H](C)NC(C)=O)cc1)C2` [Example 1.080], the IC50 worked out at 396 nM.

In the case of `CC(=O)NC(C)c1ccc(CN2CCc3c(cccc3OC(C)C)C2)cc1` (stereo not shown) [Example 1.005], the IC50 is 252 nM.
